Series [1] concerns the target T1, Peroxisome proliferator-activated receptor gamma (Homo sapiens, UniProt P37231).
T1 sequence (P37231 whole entry): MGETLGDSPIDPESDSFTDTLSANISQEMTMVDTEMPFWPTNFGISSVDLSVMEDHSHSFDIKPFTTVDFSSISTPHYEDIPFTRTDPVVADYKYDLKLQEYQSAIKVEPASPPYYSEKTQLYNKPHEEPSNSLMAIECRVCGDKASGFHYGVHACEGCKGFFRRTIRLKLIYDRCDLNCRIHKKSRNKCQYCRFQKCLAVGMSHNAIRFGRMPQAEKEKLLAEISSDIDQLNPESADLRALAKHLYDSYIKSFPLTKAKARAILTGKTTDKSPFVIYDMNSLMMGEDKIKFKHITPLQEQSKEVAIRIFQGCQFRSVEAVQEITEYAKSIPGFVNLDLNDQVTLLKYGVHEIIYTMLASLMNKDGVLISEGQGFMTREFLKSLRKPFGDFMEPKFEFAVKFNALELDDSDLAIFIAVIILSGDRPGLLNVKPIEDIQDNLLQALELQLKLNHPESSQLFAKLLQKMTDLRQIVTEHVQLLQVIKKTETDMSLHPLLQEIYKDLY
Format: functional, cell-based.
Description: Agonist activity at GAL4-fused PPARgamma assessed as transcriptional activity by cell based assay

For series [2], the target named is T2, Peroxisome proliferator-activated receptor alpha (Homo sapiens, UniProt Q07869).
T2 sequence (Q07869 whole entry): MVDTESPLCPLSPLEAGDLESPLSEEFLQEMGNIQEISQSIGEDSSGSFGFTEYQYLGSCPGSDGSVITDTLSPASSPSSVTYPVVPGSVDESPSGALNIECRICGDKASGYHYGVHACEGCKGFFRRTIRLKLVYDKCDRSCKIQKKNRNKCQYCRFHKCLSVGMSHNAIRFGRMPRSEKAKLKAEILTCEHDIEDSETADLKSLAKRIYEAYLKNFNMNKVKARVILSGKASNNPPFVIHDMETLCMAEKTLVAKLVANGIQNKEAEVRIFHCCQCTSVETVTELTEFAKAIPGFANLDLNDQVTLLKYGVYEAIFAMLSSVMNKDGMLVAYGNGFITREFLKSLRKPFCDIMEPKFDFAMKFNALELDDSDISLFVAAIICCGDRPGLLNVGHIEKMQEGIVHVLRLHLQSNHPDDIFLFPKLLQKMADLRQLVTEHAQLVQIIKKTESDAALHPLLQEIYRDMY
Kind of series: Agonist activity at GAL4-fused PPARalpha assessed as transcriptional activity by cell based assay. Format: functional.

Series [3] deals with Mus musculus. Kind of series: Antidiabetic activity in db/db mouse type 2 diabetic model assessed as reduction of plasma glucose level at 10 mg/kg, po administered for 14 days. Format: functional. Set-up: scale not given: the % may be the effect or the level left.
Series [4] concerns Mus musculus. Kind of series: Antidiabetic activity in db/db mouse type 2 diabetic model assessed as reduction of plasma triglyceride level at 10 mg/kg, po administered for 14 days. Format: functional. Also on record: scale not given: the % may be the effect or the level left.
Series [5] concerns Mus musculus. Kind of series: Toxicity in db/db mouse type 2 diabetic model assessed as reduction of body weight at 10 mg/kg, po administered for 14 days. Set-up: dose 10 mg/kg, route oral; scale not given: the % may be the effect or the level left. The conditions noted are these: in vivo, 336 h. Format: organism-based.
Series [6] concerns Mus musculus. Briefly: Antidiabetic activity in db/db mouse type 2 diabetic model assessed as reduction of plasma glucose level at 30 mg/kg, po administered for 14 days. Format: functional. Set-up: scale not given: the % may be the effect or the level left.
The subject of series [7] is Mus musculus. Briefly: Antidiabetic activity in db/db mouse type 2 diabetic model assessed as reduction of plasma triglyceride level at 30 mg/kg, po administered for 14 days. Format: functional. Also on record: scale not given: the % may be the effect or the level left.
The test system of series [8] is Mus musculus. Kind of series: Toxicity in db/db mouse type 2 diabetic model assessed as reduction of body weight at 30 mg/kg, po administered for 14 days. Also on record: dose 30 mg/kg, route oral; scale not given: the % may be the effect or the level left. Format: organism-based. The conditions noted are these: in vivo, 336 h.

EC50 and Activity data for 21 compounds are collected here from ChEMBL document CHEMBL2203276, “Design, synthesis and evaluation of novel zwitterionic compounds as PPARα/γ dual agonists (1)” (Bioorg Med Chem Lett, 2012).

In the case of `Cc1oc(-c2ccccc2)nc1CN(Cc1ccco1)Cc1ccc(OC(C)(C)C(=O)O)cc1Cl`, the EC50 came to 0.89 µM in series [1] and 0.036 µM in series [2].
For the compound `COc1cc(OC(C)(C)C(=O)O)ccc1CN(Cc1ccco1)Cc1nc(-c2ccccc2)oc1C`, the EC50 is 0.33 µM in series [1] and 0.032 µM in series [2].
For `Cc1cc(CN(Cc2ccco2)Cc2nc(-c3ccccc3)oc2C)cc(C)c1OC(C)(C)C(=O)O`, the values for the Activity with Mus musculus [3], with Mus musculus [4] and with Mus musculus [5] were 74%, 88% and -7.6%, respectively. For the same compound, the values for the concentration giving a half-maximal response (EC50) in series [1] and in series [2] were 0.0047 µM and 0.0017 µM, respectively.
With `COc1cc(CN(Cc2ccco2)Cc2nc(-c3ccccc3)oc2C)ccc1OC(C)(C)C(=O)O`, the EC50 in series [1] amounted to 0.18 µM; in series [2], 0.009 µM.
With `Cc1cc(CN(Cc2ccco2)Cc2nc(-c3ccccc3)oc2C)ccc1OC(C)(C)C(=O)O`, the EC50 in series [1] worked out at 0.042 µM; in series [2], 0.0039 µM.
As for `Cc1oc(-c2ccccc2)nc1CN(Cc1ccc(OC(C)(C)C(=O)O)c(Cl)c1)Cc1ccco1`, the values for the EC50 in series [1] and in series [2] were 0.071 µM and 0.0051 µM, respectively.
On the same counts, the results for `Cc1oc(-c2ccccc2)nc1CN(Cc1ccc(OC(C)(C)C(=O)O)cc1)Cc1ccco1` are 0.67 µM and 0.013 µM.
For `Cc1oc(-c2cccc(Br)c2)nc1CN(Cc1ccc(OC(C)(C)C(=O)O)cc1)Cc1ccco1`, the concentration for a half-maximal effect (EC50) stood at 0.31 µM in series [1] and 0.0081 µM in series [2].
Consider `Cc1oc(-c2cccc(Br)c2)nc1CN(Cc1ccc(OC(C)(C)C(=O)O)cc1)C(=O)c1ccccc1`, for which the EC50 in series [1] and in series [2] was greater than 25 µM throughout.
In the case of `COc1ccc(CN(Cc2ccc(OC(C)(C)C(=O)O)cc2)Cc2nc(-c3cccc(Br)c3)oc2C)cc1`, the figures for the concentration giving a half-maximal response (EC50) in series [1] and in series [2] were 0.7 µM and 0.026 µM, respectively.
Turning to `CCCCN(Cc1ccc(OC(C)(C)C(=O)O)cc1)Cc1nc(-c2cccc(Br)c2)oc1C`, the EC50 in series [1] came to 1.3 µM; in series [2], 0.5 µM.
The matching figures for `Cc1oc(-c2cccc(Br)c2)nc1CN(Cc1ccccc1)Cc1ccc(OC(C)(C)C(=O)O)cc1`: 2.2 µM and 0.056 µM.
Regarding `Cc1oc(-c2cccc(Br)c2)nc1CNCc1ccc(OC(C)(C)C(=O)O)cc1`, the EC50 was 7.7 µM in series [1] and 0.67 µM in series [2].
In the case of `Cc1oc(-c2ccccc2)nc1CC(=O)Nc1ccc(OC(C)(C)C(=O)O)cc1`, the half-maximal effective concentration (EC50) in series [1] and in series [2] was greater than 25 µM in each case.
In the case of `Cc1oc(-c2ccccc2)nc1CNCc1ccc(OC(C)(C)C(=O)O)cc1`, the EC50 in series [1] was greater than 25 µM; in series [2], 10 µM.
On the same counts, the results for `Cc1oc(-c2ccccc2)nc1CNc1ccc(OC(C)(C)C(=O)O)cc1` are 8.8 µM and 7.2 µM.
`Cc1oc(-c2ccccc2)nc1CCNc1ccc(OC(C)(C)C(=O)O)cc1`: the concentration giving a half-maximal response (EC50) is 16 µM in series [1] and 5.2 µM in series [2].
The matching figures for `Cc1oc(-c2cccc(Br)c2)nc1CCOc1ccc(OC(C)(C)C(=O)O)cc1`: 0.8 µM and 0.081 µM.
In the case of `Cc1oc(-c2ccccc2)nc1CCOc1ccc(OC(C)(C)C(=O)O)cc1`, the Activity in the series on Mus musculus [6] is 25%; in the series on Mus musculus [7], 56%; with Mus musculus [8], 8.4%. In addition, the concentration giving a half-maximal response (EC50) is greater than 25 µM in series [1] and 0.5 µM in series [2].
In the case of `COc1ccc(OC(=O)N(CC(=O)O)Cc2ccc(OCCc3nc(-c4ccccc4)oc3C)cc2)cc1` [MURAGLITAZAR], in series [2], the EC50 came to 0.3 µM.
On to `CN(CCOc1ccc(CC2SC(=O)NC2=O)cc1)c1ccccn1` (stereo not drawn) [ROSIGLITAZONE], for which the Activity is given as 54% in the series on Mus musculus [3], 58% in the series on Mus musculus [4] and 10.1% in the series on Mus musculus [5].

As usually defined, the EC50 is the concentration that produces a half-maximal response.
